According to PMC4026281 (Journal of neurochemistry, 2012):
“Also recorded” adds a separate entry of the source.

Key:
α6β2* and α3β2* nAChR = settings: cited from earlier work
[1] = test system: α6β2*-nAChR, crude striatal synaptosomes; type: biochemical, mouse
[2] = test system: nAChRs on SuSC GABAergic terminals (crude synaptosomes); type: biochemical, mouse
[3] = test system: α6* nAChRs, crude rat striatal synaptosomes; settings: cited from earlier work

## α-conotoxin PIA [α-CtxPIA]
α6β2* and α3β2* nAChR
  subtypes inhibited by the α-conotoxin: selective inhibitor of α6β2*-nAChR
[1]
  inhibition of ACh-stimulated [^3H]-dopamine release: 24.2 ± 3.3%
[2]
  effect on ACh-evoked [^3H]-GABA release (abstract): did not affect [^3H]-GABA release
  inhibition of ACh-stimulated [^3H]-GABA release by 100nM α-CtxPIA: completely unable to inhibit
  inhibition of ACh-stimulated [^3H]-GABA release by α-CtxPIA: could not be reliably fit to an inhibition model; also recorded: no significant inhibition
[3]
  reversibility of inhibition of DA release: slowly reversible
[3]; read-out: IC50, inhibition of DA release stimulated by nicotine or ACh
  IC50: 1.48 nM
